What was measured:
[1] = test system: Human immunodeficiency virus 1; assay: Concentration required to inhibit 50% of HIV-1 (human immunodeficiency virus-1) replication; No suppression at concentrations up to 100 ug/mL.; type: functional, organism-based
[2] = test system: H9; assay: Concentration required to produce 50% toxicity against mock-infected H9 cells; type: functional, cell-based; conditions: Homo sapiens
[3] = Therapeutic index expressed as ratio of IC50 for 50% toxicity to EC50 for 50% inhibition; type: cell-based; conditions: human, H9 cells; read-out: TI
[4] = test system: Human immunodeficiency virus 1; assay: Concentration required to inhibit 50% of HIV-1 (human immunodeficiency virus-1) replication; type: functional, organism-based

| SMILES | EC50 [1] | IC50 [2] [µM] | selectivity ratio [3] | EC50 [4] [nM] |
| --- | --- | --- | --- | --- |
| C=C(C)[C@@H]1CC[C@]2(CO)CC[C@]3(C)[C@H](CC[C@@H]4[C@@]5(C)CC[C@H](OC(=O)CCC(=O)O)C(C)(C)[C@@H]5CC[C@]43C)[C@@H]12 | No suppression | 26 | – | – |
| CC(C)[C@@H]1CC[C@]2(CO)CC[C@]3(C)[C@H](CC[C@@H]4[C@@]5(C)CC[C@H](OC(=O)CCCC(=O)O)C(C)(C)[C@@H]5CC[C@]43C)[C@@H]12 | – | 23.6 | 1.12e+06 | 0.02 |
| C=C(C)[C@@H]1CC[C@]2(CO)CC[C@]3(C)[C@H](CC[C@@H]4[C@@]5(C)CC[C@H](OC(=O)CC(C)(C)C(=O)O)C(C)(C)[C@@H]5CC[C@]43C)[C@@H]12 | – | 33.5 | 5970 | 5.6 |
| C=C(C)[C@@H]1CC[C@]2(CO)CC[C@]3(C)[C@H](CC[C@@H]4[C@@]5(C)CC[C@H](OC(=O)CC(C)(C)CC(=O)O)C(C)(C)[C@@H]5CC[C@]43C)[C@@H]12 | – | 28.9 | 6570 | 4.4 |
| CC(C)[C@@H]1CC[C@]2(CO)CC[C@]3(C)[C@H](CC[C@@H]4[C@@]5(C)CC[C@H](OC(=O)CC(C)(C)CC(=O)O)C(C)(C)[C@@H]5CC[C@]43C)[C@@H]12 | – | 25.7 | 19500 | 1.3 |
| C=C(C)[C@@H]1CC[C@]2(CO)CC[C@]3(C)[C@H](CC[C@@H]4[C@@]5(C)CC[C@H](OC(=O)CCCC(=O)O)C(C)(C)[C@@H]5CC[C@]43C)[C@@H]12 | – | 44.4 | 670 | 60 |
| CC(C)[C@@H]1CC[C@]2(CO)CC[C@]3(C)[C@H](CC[C@@H]4[C@@]5(C)CC[C@H](OC(=O)CC(C)(C)C(=O)O)C(C)(C)[C@@H]5CC[C@]43C)[C@@H]12 | – | 27 | 16200 | 1.7 |
| C=C(C)[C@@H]1CC[C@]2(COC(=O)CC(C)(C)CC(=O)O)CC[C@]3(C)[C@H](CC[C@@H]4[C@@]5(C)CC[C@H](OC(=O)CC(C)(C)CC(=O)O)C(C)(C)[C@@H]5CC[C@]43C)[C@@H]12 | – | – | 21500 | 0.66 |
| C=C(C)[C@@H]1CC[C@]2(COC(=O)C(C)(C)CC(=O)O)CC[C@]3(C)[C@H](CC[C@@H]4[C@@]5(C)CC[C@H](OC(=O)CC(C)(C)C(=O)O)C(C)(C)[C@@H]5CC[C@]43C)[C@@H]12 | – | – | 42400 | 0.87 |
| C=C(C)[C@@H]1CC[C@]2(CO)CC[C@]3(C)[C@H](CC[C@@H]4[C@@]5(C)CC[C@H](OC(=O)COCC(=O)O)C(C)(C)[C@@H]5CC[C@]43C)[C@@H]12 | – | > 44.8 | > 1820 | 20 |
| C=C(C)[C@@H]1CC[C@]2(C(=O)O)CC[C@]3(C)[C@H](CC[C@@H]4[C@@]5(C)CC[C@H](O)C(C)(C)[C@@H]5CC[C@]43C)[C@@H]12 [BETULINIC ACID] | – | – | 9.2 | 1400 |
| C=C(C)[C@@H]1CC[C@]2(C(=O)O)CC[C@]3(C)[C@H](CC[C@@H]4[C@@]5(C)CC[C@H](OC(=O)CC(C)(C)C(=O)O)C(C)(C)[C@@H]5CC[C@]43C)[C@@H]12 [BEVIRIMAT] | – | – | > 20000 | < 0.35 |
| Cc1cn([C@H]2C[C@H](N=[N+]=[N-])[C@@H](CO)O2)c(=O)[nH]c1=O [ZIDOVUDINE] | – | – | – | 6.2 |
